Each structure is given as a SMILES string. Where a name gives a salt, the structure may show the parent alone. A value given as a limit tells only on which side of the number the result lay.

These results are taken from patent publication US20180215727A1, “LYSYL OXIDASE-LIKE 2 INHIBITORS AND USES THEREOF” (PharmAkea, Inc., priority 2015, published 2018).

This test has as its target T1, human LOXL2 (Homo sapiens, UniProt Q9Y4K0).
T1 construct: expressed in transfected cells; secreted protein in 10-20x concentrated conditioned media
T1 sequence (Q9Y4K0 26-774): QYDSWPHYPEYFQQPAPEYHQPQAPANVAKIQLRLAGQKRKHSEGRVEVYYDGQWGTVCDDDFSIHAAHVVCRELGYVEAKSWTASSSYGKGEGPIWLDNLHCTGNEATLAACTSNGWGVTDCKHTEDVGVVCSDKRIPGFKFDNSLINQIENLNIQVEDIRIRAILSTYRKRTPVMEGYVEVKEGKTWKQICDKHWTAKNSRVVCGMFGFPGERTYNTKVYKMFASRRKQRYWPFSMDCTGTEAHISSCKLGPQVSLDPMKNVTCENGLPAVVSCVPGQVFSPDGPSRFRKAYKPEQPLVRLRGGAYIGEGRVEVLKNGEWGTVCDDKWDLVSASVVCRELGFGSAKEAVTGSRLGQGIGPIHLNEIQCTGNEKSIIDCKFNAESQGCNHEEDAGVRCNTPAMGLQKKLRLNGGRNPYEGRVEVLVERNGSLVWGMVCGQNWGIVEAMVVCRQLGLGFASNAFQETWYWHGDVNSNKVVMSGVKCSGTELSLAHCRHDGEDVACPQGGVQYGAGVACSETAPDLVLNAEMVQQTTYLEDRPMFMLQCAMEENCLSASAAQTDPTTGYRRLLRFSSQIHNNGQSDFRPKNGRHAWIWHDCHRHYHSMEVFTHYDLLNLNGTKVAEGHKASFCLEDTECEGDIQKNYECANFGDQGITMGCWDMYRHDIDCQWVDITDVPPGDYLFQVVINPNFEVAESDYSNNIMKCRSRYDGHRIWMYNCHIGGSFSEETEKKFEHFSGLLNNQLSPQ
Briefly: Human LOXL2 Amine Oxidase Activity Assay (Amplex Red fluorescence). Format: biochemical. As to conditions: concentrated conditioned media from CHO cells stably expressing human LOXL2, test compound incubated 2 h at 37° C., pH8, DAP substrate. Here is the method: Example B-1: Human LOXL2 Amine Oxidase Activity Assay
LOXL2 amine oxidase activity is evaluated by measuring Amplex Red fluorescence using 10-20× concentrated conditioned media from CHO cells stably expressing human LOXL2. To assay for amine oxidase activity, 10 μL of the concentrated conditioned media is incubated with 2 μL of test compound in DMSO and 73 μL Assay Buffer (50 mM Borate Buffer, pH8) for 2 h at 37° C. After the 2 h incubation, 5 μl of 10 mM 1,5-Diaminopentane (DAP) diluted in Assay Buffer and 10 μl of Amplex Red Mix (8.5 μl Assay Buffer+0.5 μl of 10 mM Amplex Red+1 μl of 500 U/ml Horseradish Peroxidase) are added and the plate mixed and immediately placed on the FlexStaion for fluorescence measurements. Fluorescence is read in kinetic mode every 2 min for 1 hour at excitation=544 and emission=590. The amine oxidase activity is calculated from the slope of the linear portion of the curve.
On to `CN(C)C(=O)COc1ccc2oc(CN)cc(=O)c2c1` [Compound 1-35, 2-((2-(Aminomethyl)-4-oxo-4H-chromen-6-yl)oxy)-N,N-dimethylacetamide hydrochloride], for which the IC50 was in the range of 300 to 1000 nM.

`COC(=O)[C@H]1CCN(C(=O)c2ccc3oc(CN)cc(=O)c3c2)C1` [Compound 1-36, Methyl (S)-1-(2-(aminomethyl)-4-oxo-4H-chromene-6-carbonyl)pyrrolidine-3-carboxylate hydrochloride] came in with an IC50 above 1000 nM.

`Cn1cc(-c2ccc3c(=O)cc(CN)oc3c2)nn1` [Compound 1-39, 2-(Aminomethyl)-7-(1-methyl-1H-1,2,3-triazol-4-yl)-4H-chromen-4-one hydrochloride]: the IC50 is below 300 nM.

`NCc1cc(=O)c2ccc(N3CCN(c4ccccc4)CC3)cc2o1` [Compound 1-40, 2-(Aminomethyl)-7-(4-phenylpiperazin-1-yl)-4H-chromen-4-one hydrochloride] returned an IC50 below 300 nM.

Compound `NCc1cc(=O)c2ccc(N3CCN(C(=O)c4ccccc4)CC3)cc2o1` [Compound 1-41, 2-(Aminomethyl)-7-(4-benzoylpiperazin-1-yl)-4H-chromen-4-one hydrochloride] gave an IC50 below 300 nM.

On to `NCc1cc(=O)c2ccc(N3CCCc4ccccc43)cc2o1` [Compound 1-42, 2-(Aminomethyl)-7-(3,4-dihydroquinolin-1(2H)-yl)-4H-chromen-4-one hydrochloride], for which the IC50 was below 300 nM.

Compound `NCc1cc(=O)c2ccc(O)cc2o1` [Compound 1-43, 2-(Aminomethyl)-7-hydroxy-4H-chromen-4-one hydrochloride] had an IC50 of 300 to 1000 nM.

The compound `CC(C)COc1ccc2c(=O)cc(CN)oc2c1` [Compound 1-44, 2-(Aminomethyl)-7-isobutoxy-4H-chromen-4-one hydrochloride] yielded an IC50 below 300 nM.

Take `C#CCOc1ccc2c(=O)cc(CN)oc2c1` [Compound 1-45, 2-(aminomethyl)-7-(prop-2-yn-1-yloxy)-4H-chromen-4-one hydrochloride]: the IC50 was below 300 nM.

In turn, `NCc1cc(=O)c2ccc(OCCOc3ccccc3)cc2o1` [Compound 1-46, 2-(Aminomethyl)-7-(2-phenoxyethoxy)-4H-chromen-4-one hydrochloride] returned an IC50 below 300 nM.

`NCc1cc(=O)c2ccc(OCc3cn(-c4ccccc4)nn3)cc2o1` [Compound 1-47, 2-(Aminomethyl)-7-((1-phenyl-1H-1,2,3-triazol-4-yl)methoxy)-4H-chromen-4-one hydrochloride] had an IC50 below 300 nM.

In turn, `NCc1cc(=O)c2ccc(OCc3cccc(C(=O)Nc4ccccc4)c3)cc2o1` [Compound 1-48, 3-(((2-(Aminomethyl)-4-oxo-4H-chromen-7-yl)oxy)methyl)-N-phenylbenzamide hydrochloride] displayed an IC50 below 300 nM.

`NCc1cc(=O)c2ccc(Nc3cccc(C(=O)Nc4ccccc4)c3)cc2o1` [Compound 1-49, 3-((2-(Aminomethyl)-4-oxo-4H-chromen-7-yl)amino)-N-phenylbenzamide hydrochloride] showed an IC50 below 300 nM.

Consider `NCc1cc(=O)c2cccc(Br)c2o1` [Compound 1-50, 2-(Aminomethyl)-8-bromo-4H-chromen-4-one hydrochloride], for which the IC50 is 300 to 1000 nM.

Take `C#Cc1cccc2c(=O)cc(CN)oc12` [Compound 1-51, 2-(Aminomethyl)-8-ethynyl-4H-chromen-4-one hydrochloride]: the IC50 is above 1000 nM.

`NCc1cc(=O)c2cccc(O)c2o1` [Compound 1-52, 2-(Aminomethyl)-8-hydroxy-4H-chromen-4-one hydrochloride]: the IC50 lay within 300 to 1000 nM.

Turning to `C#CCOc1cccc2c(=O)cc(CN)oc12` [Compound 1-53, 2-(Aminomethyl)-8-(prop-2-yn-1-yloxy)-4H-chromen-4-one hydrochloride], the half-inhibitory concentration (IC50) was 300 to 1000 nM.

As to `NCc1cc(=O)c2cccc(OCc3ccccc3)c2o1` [Compound 1-54, 2-(Aminomethyl)-8-(benzyloxy)-4H-chromen-4-one hydrochloride], the IC50 was 300 to 1000 nM.

In turn, `NCc1cc(=O)c2cccc(OCCc3ccccc3)c2o1` [Compound 1-55, 2-(Aminomethyl)-8-phenethoxy-4H-chromen-4-one hydrochloride] returned an IC50 of 300 to 1000 nM.

Compound `NCc1cc(=O)c2cccc(OCCOc3ccccc3)c2o1` [Compound 1-56, 2-(Aminomethyl)-8-(2-phenoxyethoxy)-4H-chromen-4-one hydrochloride] had an IC50 above 1000 nM.

In turn, `NCc1cc(=O)c2cccc(OCC(=O)Nc3ccccc3)c2o1` [Compound 1-57, 2-((2-(Aminomethyl)-4-oxo-4H-chromen-8-yl)oxy)-N-phenylacetamide hydrochloride] displayed an IC50 of 300 to 1000 nM.

Regarding `NCc1cc(=O)c2cccc(OCc3cccc(C(=O)Nc4ccccc4)c3)c2o1` [Compound 1-58, 3-(((2-(Aminomethyl)-4-oxo-4H-chromen-8-yl)oxy)methyl)-N-phenylbenzamide hydrochloride], the IC50 was above 1000 nM.

`NCc1cc(=O)c2cc(C(=O)NCCO)ccc2o1` [Compound 1-59, 2-(Aminomethyl)-N-(2-hydroxyethyl)-4-oxo-4H-chromene-6-carboxamide hydrochloride] displayed an IC50 of 300 to 1000 nM.

`NCc1cc(=O)c2cc(C(=O)N3C[C@H](O)[C@@H](F)C3)ccc2o1` [Compound 1-60, 2-(Aminomethyl)-6-((3S,4S)-3-fluoro-4-hydroxypyrrolidine-1-carbonyl)-4H-chromen-4-one hydrochloride] had a concentration for half-maximal inhibition (IC50) of 300 to 1000 nM.

As for `NCc1cc(=O)c2cc(C(=O)N3C[C@@H](O)[C@H](F)C3)ccc2o1` [Compound 1-61, 2-(Aminomethyl)-6-((3R,4R)-3-fluoro-4-hydroxypyrrolidine-1-carbonyl)-4H-chromen-4-one hydrochloride], the IC50 was 300 to 1000 nM.

Consider `NCc1cc(=O)c2ccc(OCc3ccc(C(F)(F)F)cc3)cc2o1` [Compound 1-62, 2-(Aminomethyl)-7-((4-(trifluoromethyl)benzyl)oxy)-4H-chromen-4-one hydrochloride], for which the IC50 is below 300 nM.

For the compound `NCc1cc(=O)c2ccc(OCC#Cc3ccccc3)cc2o1` [Compound 1-63, 2-(Aminomethyl)-7-((3-phenylprop-2-yn-1-yl)oxy)-4H-chromen-4-one hydrochloride], the IC50 was below 300 nM.

`COc1ccc(COc2ccc3c(=O)cc(CN)oc3c2)cc1` [Compound 1-64, 2-(Aminomethyl)-7-((4-methoxybenzyl)oxy)-4H-chromen-4-one] displayed an IC50 below 300 nM.

With `NCc1cc(=O)c2ccc(OCc3ccc4ccccc4n3)cc2o1` [Compound 1-65, 2-(Aminomethyl)-7-(quinolin-2-ylmethoxy)-4H-chromen-4-one hydrochloride], the IC50 is below 300 nM.

For `NCc1cc(=O)c2ccc(OCc3cc4ccccc4s3)cc2o1` [Compound 1-66, 2-(Aminomethyl)-7-(benzo[b]thiophen-2-ylmethoxy)-4H-chromen-4-one hydrochloride], the IC50 is below 300 nM.

In the case of `NCc1cc(=O)c2ccc(Oc3cccc(C(F)(F)F)c3)cc2o1` [Compound 1-67, 2-(Aminomethyl)-7-(3-(trifluoromethyl)phenoxy)-4H-chromen-4-one hydrochloride], the IC50 is below 300 nM.

The compound `NCc1cc(=O)c2ccc(Oc3ccccc3)cc2o1` [Compound 1-68, 2-(Aminomethyl)-7-phenoxy-4H-chromen-4-one hydrochloride] yielded a half-inhibitory concentration (IC50) below 300 nM.

As for `COc1cc2c(=O)cc(CN)oc2cc1OCc1ccccc1` [Compound 1-69, 2-(Aminomethyl)-7-(benzyloxy)-6-methoxy-4H-chromen-4-one hydrochloride], the IC50 is below 300 nM.

In turn, `NCc1cc(=O)c2ccc(Nc3cnn(-c4ccccc4)c3)cc2o1` [Compound 1-70, 2-(Aminomethyl)-7-((1-phenyl-1H-pyrazol-4-yl)amino)-4H-chromen-4-one hydrochloride] had an IC50 below 300 nM.
